# Biological target: T1, human TRPM2 (Homo sapiens, UniProt O94759)
# T1 construct: expressed in transfected cells; host or cells: HEK293
# Test: fluo-4 Ca2+ assay selectivity, HEK cells expressing human TRPM2
# Assay type: cell-based
# Settings: concentrations up to 50 μM
# From the text: KU-19-19 (DSMZ no. ACC 395), CAL-29 (DSMZ no. ACC 515), 647-V (DSMZ no. ACC 414), RT-4 (DSMZ no. ACC 412), and RT-112 (DSMZ no. ACC 418) bladder cancer cell lines were obtained from the Leibniz Institute DSMZ (German Collection of Microorganisms and Cell Cultures). Human TRPV3 (NM_145068, purchased from OriGene) and mouse TRPV3 (NM_001371006), rat TRPV1, mouse TRPV2, mouse TRPV4, human TRPM2, human TRPM8, and human TRPA1 were stably transfected in HEK293 cells as described before.[27] […]
# All fluorometric Ca^2+ assays were performed in HBS buffer at room temperature. […] For the primary compound screening and the generation of concentration-response analyses, a robotic liquid handling station (Freedom Evo 150; Tecan) with a built-in custom-made fluorescence plate imager was used. […] Fluorescence was excited using a 470-nm light-emitting diode, and emitted light was imaged through a 515-nm–long pass filter with a cooled Zyla 5.5 camera (Andor). Fluorescence was recorded and processed under the control of the μ-Manager 2.0 gamma software (https://micro-manager.org.[28]). After recording baseline fluorescence, compounds were dispensed into the wells via the liquid handling device. […] For further analysis, fluorescence signals were calculated for each well, corrected for background intensities and normalized to the initial signals. […]
# T1 sequence (O94759 whole entry): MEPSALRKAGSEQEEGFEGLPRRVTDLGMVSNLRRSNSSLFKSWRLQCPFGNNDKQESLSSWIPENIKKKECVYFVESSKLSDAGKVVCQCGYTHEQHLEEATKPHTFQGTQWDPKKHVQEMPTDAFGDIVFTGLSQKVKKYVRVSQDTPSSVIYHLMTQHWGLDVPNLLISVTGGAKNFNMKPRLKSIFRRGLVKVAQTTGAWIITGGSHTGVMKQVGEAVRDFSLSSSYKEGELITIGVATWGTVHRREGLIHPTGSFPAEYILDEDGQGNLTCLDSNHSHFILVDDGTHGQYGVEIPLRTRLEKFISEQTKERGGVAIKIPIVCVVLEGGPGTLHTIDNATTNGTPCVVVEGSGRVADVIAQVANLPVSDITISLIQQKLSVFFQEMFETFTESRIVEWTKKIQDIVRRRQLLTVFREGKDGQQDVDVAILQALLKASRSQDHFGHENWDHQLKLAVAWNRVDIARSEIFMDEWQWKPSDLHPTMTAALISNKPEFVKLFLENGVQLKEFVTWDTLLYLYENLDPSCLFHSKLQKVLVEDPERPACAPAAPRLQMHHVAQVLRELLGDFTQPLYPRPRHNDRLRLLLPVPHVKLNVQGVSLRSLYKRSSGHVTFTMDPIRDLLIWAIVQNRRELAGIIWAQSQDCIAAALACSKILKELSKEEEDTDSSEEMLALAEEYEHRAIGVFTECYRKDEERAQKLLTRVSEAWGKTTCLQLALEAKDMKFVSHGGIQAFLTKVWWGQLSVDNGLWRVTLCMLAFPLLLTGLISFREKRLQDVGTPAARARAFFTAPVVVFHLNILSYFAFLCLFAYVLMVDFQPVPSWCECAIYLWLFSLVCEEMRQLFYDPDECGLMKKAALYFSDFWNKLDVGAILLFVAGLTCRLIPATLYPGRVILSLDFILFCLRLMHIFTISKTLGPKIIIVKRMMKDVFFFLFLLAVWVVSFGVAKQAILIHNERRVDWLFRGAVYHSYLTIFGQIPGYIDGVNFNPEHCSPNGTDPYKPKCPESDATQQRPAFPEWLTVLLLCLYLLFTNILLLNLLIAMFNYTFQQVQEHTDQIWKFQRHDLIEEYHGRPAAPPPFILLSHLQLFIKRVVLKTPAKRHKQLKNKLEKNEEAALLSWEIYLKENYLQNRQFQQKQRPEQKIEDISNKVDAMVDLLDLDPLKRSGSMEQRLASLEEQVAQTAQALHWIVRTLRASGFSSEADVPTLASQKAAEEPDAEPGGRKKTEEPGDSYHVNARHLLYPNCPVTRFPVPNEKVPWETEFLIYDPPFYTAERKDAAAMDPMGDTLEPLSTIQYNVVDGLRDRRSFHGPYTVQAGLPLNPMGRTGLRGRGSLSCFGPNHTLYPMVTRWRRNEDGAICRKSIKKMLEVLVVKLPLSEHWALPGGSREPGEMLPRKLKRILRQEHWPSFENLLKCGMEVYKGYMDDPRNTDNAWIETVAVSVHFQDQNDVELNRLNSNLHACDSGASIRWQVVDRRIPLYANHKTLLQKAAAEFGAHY
smiles,measurement,value
COC(=O)C12CN(Cc3ccccc3)CC1(C(=O)OC)CN(Cc1ccccc1)C2 (stereo not shown) [AV3-1],effect on TRPM2,no effect
